Test results from patent US4829073A, “Thiadiazole oxides for treating gastrointestinal motility disorders” (Bristol-Myers Company, priority 1988, dated 1989).
Like-named read-outs stand apart in the source and are kept apart here. Values belong to the compound of their own block, whether it stands above or below them.

What was measured:
[1] = system: gastric emptying of a solid meal; assay: Gastric emptying of solid meal in conscious dogs; assay type: in vivo, beagle dogs; conditions: for gastric half emptying time (T1/2) of a solid meal: control 208 ± 34, *P < .05; for half emptying time (t1/2) of a solid meal, in words: orally, conscious dogs
Protocol: Under aseptic conditions 10 beagle dogs were implanted with T-shaped titanium duodenal cannulas. The dogs were allowed to recover from surgery for 3 weeks. Each dog before the test was fasted for 16-18 hours. Water was provided ad lib. On the day of the test, the duodenal cannula was opened and the stomach contents were drained. The cannula was closed again and the dog was dosed orally with either placebo (10cc saline) or with test compound in 10cc saline. […] The dry weight of this food is 36 grams. After the dog had ingested the food the cannula was opened and an insert was placed in the cannula which drained the chyme through the cannula into a beaker. This collection was continued for 5 hours and samples were collected every thirty minutes. The chyme was filtered and dried in an oven. The dry weight collected every thirty minutes was deducted from the dry weight of the food left in the stomach. A time response curve of gastric emptying was developed and t1/2, the time taken to empty 50% of the solid meal from the stomach was determined. The t1/2 for the test compound at various doses was compared with controls. Significance of differences was determined using paired t-test.

GABA receptors = assay: Radioligand binding to membrane receptors: GABA
Protocol: (§1) Radioligand binding studies to membrane receptors were carried out to assess the potential for interaction with other receptors. […] To assess any possible cardiovascular effects a bolus injection of the test compound at various doses was administered to anesthetized dogs. Thus, the compound of Example 1, at 5 mg/kg administered I.V., had no effect on heart rate or blood pressure in three anesthetized dogs.

[2] = system: opossum lower esophageal sphincter (LES); assay: Lower esophageal sphincter pressure in the anesthetized opossum; assay type: in vivo
From the text: This procedure measures the effect of the test compounds on the opossum lower esophageal sphincter (LES) which closely resembles the human sphincter. In order to test the effects of compounds on LES resting pressure, a small tube perfused with water at a constant flow rate is passed through the anesthetized opossum esophagus and water pressure in the tube is monitored. The method is similar to that described by R. Goyal et al., Gastroenterology, 71, 62-67 (1976). An increase in esophageal tone is measured as an increase in pressure and reported as a percent increase of the control determination. The compound of Example 1 was given as a single bolus dose of 10 mg/kg I.V. in four opossums.

rat gastric emptying = assay: In vivo small animal gastroprokinetic activity: rat gastric emptying; set-up: species or system male Sprague-Dawley rats; conditions: normal rats; for ED50: Rattus norvegicus
Protocol: IN VIVO SMALL ANIMAL GASTROPROKINETIC ACTIVITY The method used to assess rat gastric emptying is a modification of the procedures described by D. A. Droppleman et al., Journal of Pharmacological Methods, 4, 227-230 (1980). Test compounds (0.3 to 30 mg/kg in 1 ml/kg vehicle) are administered either orally or subcutaneously to male, Sprague-Dawley rats (160-180 g) that were fasted overnight. The test animals receive 2.5 ml of a freshly made milk plus ground rat chow meal by oral intubation, thirty or fifteen minutes following oral or subcutaneous administration, respectively. Rats are sacrificed 25 minutes following the test meal, and the stomachs are quickly excised. Each stomach containing the remaining meal is weighed intact on an analytical balance. To empty the contents before reweighing, each stomach is cut open, rinsed thoroughly and then blotted dry. The difference in weights indicates the amount of meal remaining in the stomach. The amount of meal retained is calculated as a percent of the total meal weight administered.

[3] = system: heart rate or blood pressure; assay: Cardiovascular effects in anesthetized dogs; assay type: in vivo; conditions: 5 mg/kg I.V. bolus; three anesthetized dogs
Protocol: as §1

benzodiazepine receptors = assay: Radioligand binding to membrane receptors: benzodiazepine
Protocol: as §1

serotonin receptors = assay: Radioligand binding to membrane receptors: serotonin
Protocol: as §1

[4] = system: circular smooth muscle contractile activity of the antral and duodenal portion of the stomach; assay: Gastric contractile activity in the anesthetized dog; assay type: in vivo, Male Beagle Dogs; conditions: I.V. cumulative dosing 0.01 to 10 mg/kg
Protocol: The effect of test compounds on circular smooth muscle contractile activity of the antral and duodenal portion of the stomach are measured by strain gauge arches sewn on the serosal surface similar to the procedure described by […] et al., Digestion, 28, 205-209 (1983). Male Beagle Dogs, weighing 8 to 14 kg, are fasted overnight and then anesthetized with pentothal (thiopental sodium), 20 mg/kg and maintained with I.V. alpha-chloralose (100 mg/ml in PEG 400, diluted 1:1 with saline immediately before use) as needed, usually 100 mg/dose. The trachea is intubated for respiratory assistance if needed, and the right femoral artery and vein are cannulated to monitor blood pressure and administer I.V. solutions, respectively. The stomach and intestine are exposed by a midline incision, and a Walton-Brodie adjustable strain gauge arch is sewn on the ventral surface of the antrum of the stomach, 3-5 cm proximal to the pylorus. The arch is oriented to respond to contractions of the circular muscle, and the initial resting tension is set at 25 grams by adjusting the length of the arch. The preparation is allowed to stabilize for 1 to 2 hours. Fifteen minutes after observation of migrating motor complex phase III activity, test compounds are given every 10 minutes in a cumulative dosing manner beginning at 0.01 mg/kg to 10 mg/kg. The test compounds are dissolved in saline at concentrations that are dependent on the weight of each animal so that a constant volume will be administered at each dose level. […] The stomach contractions, the cumulative grams of tension developed by the stomach contractions, EKG, heart rate, blood pressure, and any additional contractile and/or electrical activities are recorded on a Beckman Dynograph. The results are expressed as the increased tension developed by the smooth muscles in response to the administration of test compound.

rat fundic strip = assay: Electrically stimulated isolated rat stomach fundus; assay type: cell-based
Protocol: (§2) Two classical pharmacological preparations, the field stimulated guinea pig ileum and field stimulated rat fundic strip, are utilized to assess gastroprokinetic activity in vitro.
The rat fundic strip is prepared according to the method described by J. R. Vane, Brit. J. Pharmacol., 12, 344-349 (1957). For this preparation, strips are made by removing the fundal end of the stomach and slitting it open to form a sheet. Small cuts are made transversing the longitudinal muscle to produce two strips 3-4 cm in length. The tissues are mounted in a 20 ml organ bath containing Kreb's solution at 37° C. and are oxygenated with 95% O2 -5% CO2. Resting tension is adjusted to 1.0 g. Contractions are recorded by means of a force displacement transducer and a Beckman Dynograph Type R.
Once a consistent response to electrical field stimulation is established, varying amounts of a test compound are added to the bath. All compounds are administered three minutes prior to electrical stimulation at volumes of 0.2 ml to 0.6 ml for final bath concentrations of 0.1 μM thru 100 μM. Each tissue is thoroughly washed between each dose. A dose response curve is achieved by measuring the effect of increasing dose levels of test materials on the tissue contraction due to electrical field stimulation.

[5] = system: guinea pig ileum (longitudinal muscle); assay: Electrically stimulated isolated guinea pig ileum; assay type: cell-based; conditions: Cavia porcellus
Protocol: as §2
A modification of the procedure described by W. D. M. Paton, J. Physiol. (Lond), 127, 40-41P (1955). Segments of the preterminal ileal tissue, 3-4 cm in length, are mounted in a 20 ml tissue bath. The tissues are perfused at 37° C. with a modified Krebs solution and continuously gassed with 95%O2 -5% CO2. The solution is prepared with millipore water and consists of (mM/L): NaCl 116, KCl 5, CaCl2 2.5, KH2 PO4 1.2, MgSO4.7H2 O 0.5, NaHCO3 25 and Glucose 11.1.
A force displacement transducer is attached to each tissue and the resting tension adjusted to 1.0 g. The tissues are allowed to equilibrate for one hour, with washes every twenty minutes, after the stimulator is engaged or until twitch height remains stable.
Dose response curves for test compounds are established by adding single doses of the material in increasing increments until a maximal effect is achieved. Compounds are administered at volumes ranging from 0.2 to 0.6 ml to give final bath concentrations of 0.1 μM thru 100 μM. The test materials remain in contact with the tissue for 2 to 3 minutes, until the peak effect is achieved, before thorough washing with Kreb's solution. […]

[6] = system: calcium channel receptors; assay: Radioligand binding to membrane receptors: calcium channel
Protocol: as §1

dopamine receptors = assay: Radioligand binding to membrane receptors: dopamine
Protocol: as §1

[7] = 1.0 mg/kg P.O. (N = 3), 60 minutes before meal
[8] = 3.0 mg/kg P.O. (N = 3), 60 minutes before meal

SMILES: CCN(CC)CCNC(=O)c1cc(Cl)c(N)cc1OC [Metoclopramide, metoclopramide, reference compound]
- gastric half emptying time (T1/2) of a solid meal ([1]; 0.1 mg/kg P.O. (N = 3), 30 min before meal): 2 ± 0.35 h
- gastric half emptying time (T1/2) of a solid meal ([1]; 1.0 mg/kg P.O. (N = 3), 30 min before meal): 3.3 ± 0.233 h

SMILES: NC1=NS(=O)(=O)N=C1NCCSCc1ccc(CN2CCCCC2)o1 [Example 2]
- gastric half emptying time (T1/2) of a solid meal [1, 7]: 1.83 ± 0.3 h
- half emptying time (t1/2) of a solid meal, in words ([1]; 1.0 mg/kg): significantly decreased

- binding to GABA receptors (GABA receptors): does not bind
- binding to benzodiazepine receptors (benzodiazepine receptors): does not bind
- binding to serotonin receptors (serotonin receptors): does not bind
- EC50 (rat fundic strip; bath concentrations 0.1 μM thru 100 μM, 37° C., 95% confidence limits in parentheses): 8.2 µM
- EC50 ([5]; 95% confidence limits of 84-1629, bath concentrations 0.1 μM thru 100 μM, 37° C., read-out: computer projected EC50 value): 224 µM
- binding to calcium channel receptors [6]: does not bind
- binding to dopamine receptors (dopamine receptors): does not bind
SMILES: Nc1n[s+]([O-])nc1NCCSCc1ccc(CN2CCCCC2)o1 (stereo not shown) [Example 1, 3-Amino-4-{2-[(5-piperidinomethyl-2-furyl)methylthio]ethylamino}-1,2,5-thiadiazole 1-oxide]
- increase in LES pressure ([2]; 10 mg/kg I.V. single bolus, four opossums, percent increase of the control determination): 33%
- inhibition of LES pressure following the initial increase ([2]; I.V., higher doses than 10 mg/kg): no inhibition of LES pressure following the initial increase was observed
- gastric half emptying time (T1/2) of a solid meal ([1]; 0.1 mg/kg P.O. (N = 3), 60 minutes before meal): 3.4 ± 0.533 h
- gastric half emptying time (T1/2) of a solid meal [1, 7]: 1.6 ± 0.233 h
- gastric half emptying time (T1/2) of a solid meal [1, 8]: 1.63 ± 0.267 h
- half emptying time (t1/2) of a solid meal, in words ([1]; 1.0 mg/kg): significantly decreased
- ED50 (rat gastric emptying; sc, subcutaneous, 15 min before test meal, read-out: subcutaneous ED50 value, stomach emptying): 0.4 mg/kg
- ED50 (rat gastric emptying; oral, 30 min before test meal, read-out: oral ED50 value, stomach emptying): 2.9 mg/kg
- maximum response over control values, stomach emptying (rat gastric emptying; oral): 95±19%
- maximum response over control values, stomach emptying (rat gastric emptying; subcutaneous): 105±6%
- effect on blood pressure [3]: no effect
- effect on heart rate [3]: no effect
- ED50 ([4]; Canis lupus familiaris, iv, 50% of approx. 20 grams mean maximal response, read-out: ED50 value (dose necessary to achieve 10 grams of tension)): 0.24 mg/kg
- duodenal tension [4]: increased the duodenal tension dose dependently
- maximal response of developed tension [4]: 24±5 grams
- Emax (rat fundic strip; read-out: increase in contractile force, maximal response over control): 82 ± 10%
- Emax ([5]; read-out: increase in contractile amplitude, maximal response over control): 37 ± 4.8%

SMILES: CNC(=C[N+](=O)[O-])NCCSCc1ccc(CN(C)C)o1 [Ranitidine, ranitidine, reference compound]
- gastric half emptying time (T1/2) of a solid meal [1, 7]: 3.43 ± 0.517 h
- gastric half emptying time (T1/2) of a solid meal [1, 8]: 3.43 ± 0.4 h
- half emptying time (t1/2) of a solid meal, in words ([1]; at the tested doses (1.0 and 3.0 mg/kg)): ineffective
